Ends that are not written are not given here.
Experiments:
[1] = test system: U2OS cells; assay: Cell entry and nucleolar localisation by HA immunostaining in U2OS cells; format: cell-based; settings: 10 μM, 30 min, fixed, HA antibody staining
[2] = test system: human astrocytes; assay: Nucleolar localisation by HA immunostaining in human astrocytes; format: cell-based; settings: U2OS cancer cells and human astrocytes, HA antibody and Fibrillarin staining
[3] = test system: EAAT2 transcript; assay: RT-PCR of EAAT2 transcript splicing in human astrocytes; format: cell-based; settings: for aberrant EAAT2 splicing: human astrocytes exposed to toxin until clear evidence of toxicity, PCR, fig. S6B
[4] = test system: U2OS cells; format: cell-based
[5] = format: in vitro ADME; settings: cells or culture medium
[6] = test system: ribosomal RNA (45S precursor, 18S, 5.8S, 28S); assay: qPCR of rRNA synthesis and processing in peptide-treated human astrocytes; format: cell-based; settings: 12 hours
[7] = test system: pre-mRNA splicing (RAN GTPase, PTX3, NACA, GADD45A); format: cell-based; settings: human astrocytes
[8] = molecular target: mCherry:hnRNPA2 hydrogel droplets (low complexity domain of hnRNPA2) (Homo sapiens, UniProt P22626); assay: Binding to mCherry:hnRNPA2 hydrogel droplets; settings: GFP signal at the periphery of mCherry:hnRNPA2 hydrogel droplets; overnight incubation at 4°C
Chain of mCherry:hnRNPA2 hydrogel droplets (low complexity domain of hnRNPA2) (P22626 193-353 limits assumed, one chain of several): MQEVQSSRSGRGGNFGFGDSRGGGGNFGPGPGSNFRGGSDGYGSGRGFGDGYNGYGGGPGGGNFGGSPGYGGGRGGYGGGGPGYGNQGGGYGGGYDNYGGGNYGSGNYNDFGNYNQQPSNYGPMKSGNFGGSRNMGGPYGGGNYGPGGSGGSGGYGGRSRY

## CC(C)[C@H](NC(=O)[C@H](CC(=O)O)NC(=O)[C@H](Cc1ccc(O)cc1)NC(=O)[C@@H]1CCCN1C(=O)[C@H](Cc1ccc(O)cc1)NC(=O)[C@H](CCCNC(=N)N)NC(=O)CNC(=O)[C@H](CCCNC(=N)N)NC(=O)CNC(=O)[C@H](CCCNC(=N)N)NC(=O)CNC(=O)[C@H](CCCNC(=N)N)NC(=O)CNC(=O)[C@H](CCCNC(=N)N)NC(=O)CNC(=O)[C@H](CCCNC(=N)N)NC(=O)CNC(=O)[C@H](CCCNC(=N)N)NC(=O)CNC(=O)[C@H](CCCNC(=N)N)NC(=O)CNC(=O)[C@H](CCCNC(=N)N)NC(=O)CNC(=O)[C@H](CCCNC(=N)N)NC(=O)CNC(=O)[C@H](CCCNC(=N)N)NC(=O)CNC(=O)[C@H](CCCNC(=N)N)NC(=O)CNC(=O)[C@H](CCCNC(=N)N)NC(=O)CNC(=O)[C@H](CCCNC(=N)N)NC(=O)CNC(=O)[C@H](CCCNC(=N)N)NC(=O)CNC(=O)[C@H](CCCNC(=N)N)NC(=O)CNC(=O)[C@H](CCCNC(=N)N)NC(=O)CNC(=O)[C@H](CCCNC(=N)N)NC(=O)CNC(=O)[C@H](CCCNC(=N)N)NC(=O)CNC(=O)[C@H](CCCNC(=N)N)NC(=O)CN)C(=O)N1CCC[C@H]1C(=O)N[C@@H](CC(=O)O)C(=O)N[C@@H](Cc1ccc(O)cc1)C(=O)N[C@@H](C)C(=O)O [GR20]
[1]
  cell entry and localisation: entered cells, migrated to the nucleus and bound to nucleoli
[2]
  nucleolar association: associated prominently with nucleoli

## C=C1[C@@H](C)[C@H]2[C@H](Cc3ccccc3)NC(=O)[C@]23[C@H](OC(C)=O)/C=C/[C@@](C)(O)C(=O)[C@@H](C)C/C=C/[C@H]3[C@@H]1O [cytochalasin D]
[3]
  aberrant EAAT2 splicing: None of the four toxins gave evidence of aberrant splicing

## COc1cccc2c1C(=O)c1c(O)c3c(c(O)c1C2=O)C[C@@](O)(C(=O)CO)C[C@@H]3O[C@H]1C[C@H](N)[C@H](O)[C@H](C)O1 [doxorubicin]
[3]
  aberrant EAAT2 splicing: None of the four toxins gave evidence of aberrant splicing

## CN[C@@H]1C[C@H]2O[C@@](C)([C@@H]1OC)n1c3ccccc3c3c4c(c5c6ccccc6n2c5c31)C(=O)NC4 [staurosporin]
[3]
  aberrant EAAT2 splicing: None of the four toxins gave evidence of aberrant splicing

## CC(=O)O[C@H]1C(=O)[C@@]2(C)[C@H]([C@H](OC(=O)c3ccccc3)[C@]3(O)C[C@H](OC(=O)[C@H](O)[C@@H](NC(=O)c4ccccc4)c4ccccc4)C(C)=C1C3(C)C)[C@]1(OC(C)=O)CO[C@@H]1C[C@@H]2O [taxol]
[3]
  aberrant EAAT2 splicing: None of the four toxins gave evidence of aberrant splicing

## PRPRPRPRPRPRPRPRPRPRPRPRPRPRPRPRPRPRPRPRYPYDVPDYA [PR20]
[4]; 10 μM peptide, fig. S4E
  time to half-maximal impact on cell viability: roughly 36 hours
[4]; 30 μM dose of the peptide, fig. S4F
  time to 50% cell death: 6 h
[4]; U2OS cells, 10 μM, within 24 hours
  cell morphology: spindle-like phenotype
[4]; U2OS cells, 30 μM, 24 hours
  cell morphology and viability: almost all cells were detached from the culture substrate and dead
[5]
  half-life: 72 h
[6]; 10 μM, qPCR
  attenuation of rRNA precursor, 3′ junction of 5.8S rRNA: 40%
  attenuation of rRNA precursor, third probe (5′ end of 5.8S rRNA): roughly 20%
  elevation of rRNA precursor, 5′ transcribed spacer primers: 20%
  immature rRNA, first junctional probe (5′ end of 18S rRNA): elevation in immature rRNA
  rRNA precursor, 5′ junction of 28S rRNA: normal precursor levels
  rRNA precursor, second junctional probe (3′ end of 18S rRNA): normal levels of rRNA precursor
[6]; 30 μM, qPCR
  28S rRNA level: Slight reductions
  drop of rRNA precursor, 3′ terminus of 5.8S rRNA: 70%
[6]; 30 μM, qPCR relative to vehicle
  reduction of the level of 5.8S rRNA: 70%
[1]
  cell entry and localisation: entered cells, migrated to the nucleus and bound to nucleoli
[2]
  nucleolar association: associated prominently with nucleoli
[3]; human astrocytes, 10 or 15 μM, 36 hours, RT-PCR
  aberrant EAAT2 splicing (exon 9-skipped form and intron 7 retention): appeared in a concentration-dependent manner
[7]; 6 hours, RT-PCR
  splicing of GADD45 mRNA: include the full intronic sequences on both sides of exon 2
  splicing of NACA mRNA: contain a different 5′ UTR
  splicing of PTX3 mRNA: exon 2-skipping
  splicing of RAN GTPase mRNA: exon 2-skipping
[7]; RNA-seq, P < 2.2e-16, Kolmogorov–Smirnov test
  expression of the ribosomal protein gene family: significantly up-regulated

## green fluorescent protein [GFP]
[8]
  binding to hnRNPA2 hydrogel droplets: did not bind

From publication PMC4459787 (Science (New York, N.Y.), 2014)
